Assay results: patent US20260001910A1, “PEPTIDES AND USES THEREOF” (PreveCeutical Medical Inc., priority 2021, published 2026)
Where two headings read alike, the source gives them in different places.

Columns and labels:
[1] = Description: (§1) The MTT (3-[4.5-dimethylthiazol-2-yl]-2,5=diphenyl tetrazolium bromide) assay is based on a process undertaken by living cells, involving the conversion of MTT into formazan crystals. This assay is used routinely to measure the in vitro cytotoxic effects of drugs on cell lines or primary patient cells (Van Meerloo et al., 2011).
(§2) The glioblastoma multiforme (GBM) cell lines used were U87 and U251 cells and patient derived cells grown as oncospheres (081024 cells). Human adherent GBM cell lines U87 and U251 were cultured in RPMI medium (Life Technologies Melbourne Australia) supplemented with 5% v/v FBS, 100 U/mL penicillin and 100 μg/mL streptomycin. 081024 cells were cultured in NeuroCult™ NS-A Proliferation medium with 0.2% (v/v) hepain, 20 ng/mL EGF and 10 ng/ml FGF.
(§3) 8×10^3 U87 and 7×10^3 U251 cells per well were seeded in 96 well plates in 200 μL serum-containing RPMI medium and incubated at 37° C. with 5% CO2 for 24 hours. After one wash with serum-free medium, 100 μL serum-free medium with different concentration of peptide SEQ ID NO:1 was added to each well. After 48 hours incubation, 10 μL of 0.5 mg/mL MTT was added and incubated for 2 hours at 37° C. Formazan crystals were dissolved by 200 μL/well dimethyl sulfoxide (DMSO) and shaking for 15 minutes. The UV absorbance was read with an iMark™ microplate absorbance reader at 595 nm (Bio-Rad Laboratories). Background absorbance was subtracted and results expressed as the % viability of control (untreated cells).

[2] = test system: MMP-9; assay: Gelatin zymography of conditioned media (metalloprotease production); assay type: cell-based, human; conditions: conditioned medium, compared to no-peptide control
Description: (§4) To assess whether the peptide SEQ ID NO. 1 impacted MMP-2, MMP-9 and uPA production Zymography was used.
(§5) Zymography is a technique for studying hydrolytic enzymes on the basis of substrate degradation (Vandooren, J. et al. 2013). The in-gel zymography hydrolytic enzymes are separated by their molecular weights and detected by their ability to degrade a substrate. To detect the activity of MMP-2 and MMP-9 in various cell lines, conditioned media were collected in 3 independent experiments and analysed by gelatin zymography to quantify the level of gelatin digestion, which reflects MMP-2 and MMP-9 activity and production. Cascin-Plasminogen zymography was conducted to determine the activity level of uPA in the conditioned medium from various cell lines. Active uPA converts plasminogen into plasmin which then digests casein, thus clear bands where digestion of casein have occurred indirectly represent uPA activity.
(§6) The effect of the peptides on matrix protease production was tested using in-gel zymography. If the substrate included in the gel is gelatin, the enzymes detected are gelatinases: MMP-2 and MMP-9 (the latter is often of low abundance). If the gel contains casein and plasminogen, the enzymes tested are urokinase plasminogen activators (uPA); uPA is a therapeutic target in GBM.
(§7) An equal amount of protein from each sample was mixed with 5 μL of Laemmli buffer (0.01% Bromophenol Blue (W/V), 5% SDS (W/V), 22% glycerol (V/V), 14% 0.5 M Tris pH 6.8 (V/V)) and loaded onto a 10% polyacrylamide gel co-polymerized with 1 mg/ml of gelatin, and electrophoresed at 120V for 2 hours on ice. The gel was incubated in […] solution (Triton X-100 2.5% (V/V), 1 M Tris pH 7.5 5% (V/V), 0.5 M CaCl2) 1% (W/V) at room temperature overnight on an orbital shaker. The gel was incubated in a second solution for 3 hours at 37° C. The gel was then stained with Coomassie blue solution (Coomassie blue 0.25%, methanol 45%, acetic acid 10%) and destained in methanol 25% (V/V), acetic acid 10% (V/V) destaining solution until clear bands against the dark background appeared around 72 kDa and 95 kDa, representing MMP-2 and MMP-9 activity, respectively. Clear bands around 50 kDa appeared against the dark background representing uPA activity. The gels were scanned, and uPA, MMP-2 and MMP-9 were quantified by densitometry using NIH Image J software.
(§8) SEQ ID NO. 1 was compared to a control containing no peptide to evaluate whether the peptide can reduce the production of matrix proteinases. A reduction in the production of matrix proteinases may be anticipated to result in comparatively less degradation of the extra-cellular matrix and so this could be one pathway by which the invasion potential could be reduced.

[3] = test system: MMP-2; assay: as above; assay type: cell-based, human; conditions: for MMP-2 production: conditioned medium, compared to no-peptide control
Description: as §4, §5, §6, §7, §8

[4] = remark: listed apart in the source
Description: as §1, §2, §3

Compound `CC(C)C[C@@H](NC(=O)[C@@H](Cc1ccccc1)NC(=O)CNC(=O)CNC(=O)[C@H](N)Cc1ccc(O)cc1)C(=O)N[C@H](CCCNC(=N)N)C(=O)N[C@H](CCCNC(=N)N)C(N)=O` [SEQ ID NO. 1, tyr-Gly-Gly-phe-leu-arg-arg-NH2] has a viability at 5 µM [1] of 97.9%, a viability at 50 µM [1] of 101% and a viability at 100 µM [1] of 95.9%. It also gave an MMP-9 production ([2]; 081024 cells) of 101.4, an MMP-9 production ([2]; U87 cells) of 67.83 and an MMP-9 production ([2]; U251 cells) of 65.41. The MMP-2 production ([3]; 081024 cells) was 100.50, the MMP-2 production ([3]; U87 cells) was 91.11 and the MMP-2 production ([3]; U251 cells) was 97.13. For the same compound, the “effect on production of MMP-2 (in words)” value ([3]; overall, versus no-peptide control) was “did not decrease the production”, the viability at 5 µM [4] was 100% and the viability at 50 µM [4] was 101%. It also gave a viability at 100 µM [4] of 94.4%.
